Measurements taken from patent US9650423B2, “Long peptides of 22-45 amino acid residues that induce and/or enhance antigen specific immune responses” (priority 2000, dated 2017).
Like-named read-outs stand apart in the source and are kept apart here.

Test system: healthy donor PBMC
Assay type: cell-based, human
Settings: for mean percentage of wells exceeding medium control + 3 * SD: 10 μg/ml, day 6, two assays

| Substance | mean percentage of wells exceeding medium control + 3 * SD (donor D3) [%] | mean percentage of wells exceeding medium control + 3 * SD (donor D5) [%] | mean percentage of wells exceeding medium control + 3 * SD (donor D8) [%] | further results |
| --- | --- | --- | --- | --- |
| E2 46-75: 30-mer, amino acids 46-75 of HPV16 E2 protein (AREMGFKHINHQVVPTLAVSKNKALQAIEL; UniProt P03120 46-75, looked up, fragment) | 88 | 81 | 94 | – |
| E2 151-180: 30-mer, amino acids 151-180 of HPV16 E2 protein (QVDYYGLYYVHEGIRTYFVQFKDDAEKYSK; UniProt P03120 151-180, looked up, fragment) | 81 | – | 81 | – |
| E2 31-60: 30-mer, amino acids 31-60 of HPV16 E2 protein (DYWKHMRLECAIYYKAREMGFKHINHQVVP; UniProt P03120 31-60, looked up, fragment) | 81 | – | 88 | – |
| E2 166-195: 30-mer, amino acids 166-195 of HPV16 E2 protein (TYFVQFKDDAEKYSKNKVWEVHAGGQVILC; UniProt P03120 166-195, looked up, fragment) | 94 | 81 | – | – |
| tetanus toxoid [TT, reference compound] | 100 | 100 | 100 | mean percentage of wells exceeding medium control + 3 * SD (donor D1): 100%; mean percentage of wells exceeding medium control + 3 * SD (donor D2): 100%; mean stimulation index of all test wells of both assays (donor D3): 25; mean percentage of wells exceeding medium control + 3 * SD (donor D4): 100%; mean stimulation index of all test wells of both assays (donor D6): 139; mean percentage of wells exceeding medium control + 3 * SD (donor D6): 100%; mean percentage of wells exceeding medium control + 3 * SD (donor D7): 100%; mean stimulation index of all test wells of both assays (donor D8): 59; stimulation index (SI) (donors #3, 4, 5 and 7): 13.3-25; stimulation index (SI) (donors #3 and 6): ≥ 100 |
| E2 91-120: 30-mer, amino acids 91-120 of HPV16 E2 protein (KWTLQDVSLEVYLTAPTGCIKKHGYTVEVQ; UniProt P03120 91-120, looked up, fragment) | – | 94 | 75 | – |
